Data as given in US20230146455A1, “TREATMENT OF INFLAMMATORY DISEASES WITH PEPTIDES AND PHARMACEUTICAL COMPOSITIONS” (Yuyu Pharma, Inc., priority 2020, published 2023).
Values joined by “and” are separate entries in the source; they are usually repeats but may differ in a detail not shown here. Equal values may be shown once. Where a SMILES comes first, the peptide text is derived from it. [ ]: non-standard residue; d: D form. Hyp = O=C(O)[C@@H]1C[C@@H](O)CN1

System: CCL4/MIP-1 beta
Assay: Example 8 main study Luminex, LPS hPBMCs: CCL4/MIP-1 beta
Type: cell-based, human
Details: for LPS-induced CCL-4 (in words): at as low as 5 μM, LPS 5 ug/mL 24 hrs
Description: Human PBMCs were pretreated with YY-101, YDE-011, YDE-043 or reference compound; Xiidra® at various concentration (ranging from […] to 500 nM) for 2 h before stimulation. An equal volume of 0.5% DMSO was used as a vehicle control. Then, the cells were treated with LPS at 5 ug/ml, which was selected based on the pilot study. The supernatants from treated cells were harvested at 24 h and placed in a 96 well for Luminex cytokine & chemokine profiling using a Luminex 200 multiplex assay (Luminex; R&D system, USA).
The main study arm with triplicate wells per group in a 24-well plate: • 1. Blank • 2. PBMC: 0.5% DMSO • 3. PBMC+LPS (5 ug/ml) • 4. PBMC+YY-101 500 nM • 5. PBMC+YY-101 50 nM • 6. PBMC+YY-101 5 nM • 7. PBMC+YY-101 0.5 nM • 8. PBMC+LPS (5 ug/ml)+Xiidra® 500 nM • 9. PBMC+LPS (5 ug/ml)+Xiidra® 50 nM • 10. PBMC+LPS (5 ug/ml)+Xiidra® 5 nM • 11. PBMC+LPS (5 ug/ml)+Xiidra® 0.5 nM • 12. PBMC+LPS (5 ug/ml)+Xiidra® 0.05 nM • 13. PBMC+LPS (5 ug/ml)+Xiidra® 0.005 nM • 14. PBMC+LPS (5 ug/ml)+YY-101 500 nM • 15. PBMC+LPS (5 ug/ml)+YY-101 50 nM • 16. PBMC+LPS (5 ug/ml)+YY-101 5 nM • 17. PBMC+LPS (5 ug/ml)+YY-101 0.5 nM • 18. PBMC+LPS (5 ug/ml)+YY-101 0.05 nM • 19. PBMC+LPS (5 ug/ml)+YY-101 0.005 nM • 20. PBMC+LPS (5 ug/ml)+YDE-011 500 nM • 21. PBMC+LPS (5 ug/ml)+YDE-011 50 nM • 22. PBMC+LPS (5 ug/ml)+YDE-011 5 nM • 23. PBMC+LPS (5 ug/ml)+YDE-011 0.5 nM • 24. PBMC+LPS (5 ug/ml)+YDE-011 0.05 nM • 25. PBMC+LPS (5 ug/ml)+YDE-011 0.005 nM • 26. PBMC+LPS (5 ug/ml)+YDE-043 500 nM • 27. PBMC+LPS (5 ug/ml)+YDE-043 50 nM • 28. PBMC+LPS (5 ug/ml)+YDE-043 5 nM • 29. PBMC+LPS (5 ug/ml)+YDE-043 0.5 nM • 30. PBMC+LPS (5 ug/ml)+YDE-043 0.05 nM • 31. PBMC+LPS (5 ug/ml)+YDE-043 0.005 nM
Multiplex assay was used to measure 30 cytokines and chemokines. The 1:200 diluted cell supernatant and serial dilution of the standard were dispensed into a 96 well plate at 50 ul/well. Then, the pre-mixed cocktail of antibody-coated magnetic beads was dispensed at 50 ul/well and incubated at room temperature for 2 h in a horizontal orbital microplate shaker at 800±500 rpm. The beads were washed using a magnetic device to prevent loss. The biotin-antibody was dispensed in 50 ul of each well and incubated at room temperature for 1 h in a shaker at 800±500 rpm. After washing, streptavidin-PE was added at 50 ul/well and incubated at room temperature for 30 min in a shaker under the same conditions. Finally, after washing, wash buffer (100 ul/well) was added to the plate and incubated in a shaker for 2 min. The Luminex™ 200 setting were set according to the manufacturer's protocol. The data was calculated with a standard five-parameter logistic nonlinear regression analysis of the data (xPonent software 4.2, USA). Results were presented as concentration (ng/ml or pg/ml).

[1] = PBMC + LPS(5 ug/ml) + test article 0.005 nM, Mean
[2] = PBMC + LPS(5 ug/ml) + test article 0.005 nM, single replicates
[3] = PBMC + LPS(5 ug/ml) + test article 0.05 nM, Mean
[4] = PBMC + LPS(5 ug/ml) + test article 0.05 nM, single replicates
[5] = PBMC + LPS(5 ug/ml) + test article 0.5 nM, Mean
[6] = PBMC + LPS(5 ug/ml) + test article 0.5 nM, single replicates
[7] = PBMC + LPS(5 ug/ml) + test article 5 nM, Mean
[8] = PBMC + LPS(5 ug/ml) + test article 5 nM, single replicates
[9] = PBMC + LPS(5 ug/ml) + test article 50 nM, Mean
[10] = PBMC + LPS(5 ug/ml) + test article 50 nM, single replicates
[11] = PBMC + LPS(5 ug/ml) + test article 500 nM, Mean
[12] = PBMC + LPS(5 ug/ml) + test article 500 nM, single replicates
[13] = PBMC + test article 0.5 nM, no LPS, single replicates
[14] = PBMC + test article 5 nM, no LPS, single replicates
[15] = PBMC + test article 0.05 uM, no LPS, single replicates
[16] = PBMC + test article 50 nM, no LPS, single replicates
[17] = PBMC + test article 500 nM, no LPS, single replicates

## CC(C)C[C@H](NC(=O)CNC(=O)[C@H](CC(C)C)NC(=O)[C@H](CCC(N)=O)NC(=O)CNC(=O)[C@@H]1C[C@@H](O)CN1)C(=O)N[C@@H](C)C(=O)NCC(=O)N1CCC[C@H]1C(=O)N[C@@H](CCCCN)C(=O)O [YDE-011] (H-[Hyp]GQLGLAGPK-OH)
[1]
  CCL4/MIP-1 beta Concentration: 20786.2 pg/mL
  CCL4/MIP-1 beta MFI: 12.3
[2]
  CCL4/MIP-1 beta Concentration: 19701.2 pg/ml (2×) and 22956.0 pg/ml
  CCL4/MIP-1 beta MFI: 12.0 (2×) and 13.0
[3]
  CCL4/MIP-1 beta Concentration: 22956.0 pg/mL
  CCL4/MIP-1 beta MFI: 13.0
[4]
  CCL4/MIP-1 beta Concentration: 22956.0 pg/mL
  CCL4/MIP-1 beta MFI: 13.0
[5]
  CCL4/MIP-1 beta Concentration: 22956.0 pg/mL
  CCL4/MIP-1 beta MFI: 13.0
[6]
  CCL4/MIP-1 beta Concentration: 22956.0 pg/mL
  CCL4/MIP-1 beta MFI: 13.0
[7]
  CCL4/MIP-1 beta Concentration: 16738.7 pg/mL
  CCL4/MIP-1 beta MFI: 11.3
[8]
  CCL4/MIP-1 beta Concentration: 15257.5 pg/ml (2×) and 19701.2 pg/ml
  CCL4/MIP-1 beta MFI: 11.0 (2×) and 12.0
[9]
  CCL4/MIP-1 beta Concentration: 23847.2 pg/mL
  CCL4/MIP-1 beta MFI: 13.3
[10]
  CCL4/MIP-1 beta Concentration: 25629.7 pg/ml and 22956.0 pg/ml (2×)
  CCL4/MIP-1 beta MFI: 14.0 and 13.0 (2×)
[11]
  CCL4/MIP-1 beta Concentration: 13759.1 pg/mL
  CCL4/MIP-1 beta MFI: 11.3
[12]
  CCL4/MIP-1 beta Concentration: 19701.2 pg/ml (2×) and 1874.9 pg/ml
  CCL4/MIP-1 beta MFI: 12.0 (2×) and 10.0
  LPS-induced CCL-4 (in words): significantly reduced

## CC(C)C[C@H](NC(=O)[C@H](CCC(N)=O)NC(=O)CNC(=O)[C@@H]1C[C@@H](O)CN1)C(=O)NCC(=O)O [YDE-043] (H-[Hyp]GQLG-OH; N-terminus and C-terminus assumed)
[1]
  CCL4/MIP-1 beta Concentration: 24223.5 pg/mL
  CCL4/MIP-1 beta MFI: 13.7
[2]
  CCL4/MIP-1 beta Concentration: 22956.0 pg/mL and 30013.2 pg/mL and 19701.2 pg/mL
  CCL4/MIP-1 beta MFI: 13.0 and 16.0 and 12.0
[3]
  CCL4/MIP-1 beta Concentration: 19701.2 pg/mL
  CCL4/MIP-1 beta MFI: 12.0
[4]
  CCL4/MIP-1 beta Concentration: 19701.2 pg/mL
  CCL4/MIP-1 beta MFI: 12.0
[5]
  CCL4/MIP-1 beta Concentration: 21871.1 pg/mL
  CCL4/MIP-1 beta MFI: 12.7
[6]
  CCL4/MIP-1 beta Concentration: 22956.0 pg/ml (2×) and 19701.2 pg/ml
  CCL4/MIP-1 beta MFI: 13.0 (2×) and 12.0
[7]
  CCL4/MIP-1 beta Concentration: 20786.2 pg/mL
  CCL4/MIP-1 beta MFI: 12.3
[8]
  CCL4/MIP-1 beta Concentration: 19701.2 pg/ml (2×) and 22956.0 pg/ml
  CCL4/MIP-1 beta MFI: 12.0 (2×) and 13.0
[9]
  CCL4/MIP-1 beta Concentration: 21205.1 pg/mL
  CCL4/MIP-1 beta MFI: 12.5
[10]
  CCL4/MIP-1 beta Concentration: 22956.0 pg/ml (2×) and 17703.4 pg/ml
  CCL4/MIP-1 beta MFI: 13.0 (2×) and 11.5
[11]
  CCL4/MIP-1 beta Concentration: 22762.3 pg/mL
  CCL4/MIP-1 beta MFI: 13.0
[12]
  CCL4/MIP-1 beta Concentration: 25629.7 pg/mL and 22956.0 pg/mL and 19701.2 pg/mL
  CCL4/MIP-1 beta MFI: 14.0 and 13.0 and 12.0
  LPS-induced CCL-4 (in words): significantly reduced

## CC(C)C[C@H](NC(=O)CNC(=O)[C@H](CC(=O)O)NC(=O)[C@H](CCC(N)=O)NC(=O)CNC(=O)[C@@H]1C[C@@H](O)CN1)C(=O)N[C@@H](C)C(=O)NCC(=O)N1CCC[C@H]1C(=O)N[C@@H](CCCCN)C(=O)O [YY-101] (H-[Hyp]GQDGLAGPK-OH; N-terminus and C-terminus assumed)
[1]
  CCL4/MIP-1 beta Concentration: 21677.4 pg/mL
  CCL4/MIP-1 beta MFI: 12.7
[2]
  CCL4/MIP-1 beta Concentration: 25629.7 pg/ml and 19701.2 pg/ml (2×)
  CCL4/MIP-1 beta MFI: 14.0 and 12.0 (2×)
[3]
  CCL4/MIP-1 beta Concentration: 21011.4 pg/mL
  CCL4/MIP-1 beta MFI: 12.5
[4]
  CCL4/MIP-1 beta Concentration: 25629.7 pg/mL and 17703.4 pg/mL and 19701.2 pg/mL
  CCL4/MIP-1 beta MFI: 14.0 and 11.5 and 12.0
[5]
  CCL4/MIP-1 beta Concentration: 21011.4 pg/mL
  CCL4/MIP-1 beta MFI: 12.5
[6]
  CCL4/MIP-1 beta Concentration: 17703.4 pg/mL and 25629.7 pg/mL and 19701.2 pg/mL
  CCL4/MIP-1 beta MFI: 11.5 and 14.0 and 12.0
[7]
  CCL4/MIP-1 beta Concentration: 16072.8 pg/mL
  CCL4/MIP-1 beta MFI: 11.2
[8]
  CCL4/MIP-1 beta Concentration: 17703.4 pg/ml and 15257.5 pg/ml (2×)
  CCL4/MIP-1 beta MFI: 11.5 and 11.0 (2×)
[9]
  CCL4/MIP-1 beta Concentration: 16738.7 pg/mL
  CCL4/MIP-1 beta MFI: 11.3
[10]
  CCL4/MIP-1 beta Concentration: 15257.5 pg/ml (2×) and 19701.2 pg/ml
  CCL4/MIP-1 beta MFI: 11.0 (2×) and 12.0
[11]
  CCL4/MIP-1 beta Concentration: 18220.0 pg/mL
  CCL4/MIP-1 beta MFI: 11.7
[12]
  CCL4/MIP-1 beta Concentration: 15257.5 pg/ml and 19701.2 pg/ml (2×)
  CCL4/MIP-1 beta MFI: 11.0 and 12.0 (2×)
PBMC + test article 0.5 nM, no LPS, Mean
  CCL4/MIP-1 beta MFI: 6.0
[13]
  CCL4/MIP-1 beta Concentration: <148.02 pg/mL
  CCL4/MIP-1 beta MFI: 6.0
PBMC + test article 5 nM, no LPS, Mean
  CCL4/MIP-1 beta MFI: 6.5
[14]
  CCL4/MIP-1 beta Concentration: <148.02 pg/mL
  CCL4/MIP-1 beta MFI: 7.0 and 6.0
PBMC + test article 0.05 uM, no LPS, Mean
  CCL4/MIP-1 beta MFI: 5.5
[15]
  CCL4/MIP-1 beta Concentration: <148.02 pg/mL
  CCL4/MIP-1 beta MFI: 6.0 and 5.0
PBMC + test article 50 nM, no LPS, Mean
  CCL4/MIP-1 beta MFI: 7.5
[16]
  CCL4/MIP-1 beta Concentration: <148.02 pg/mL
  CCL4/MIP-1 beta MFI: 8.0 and 7.0
PBMC + test article 500 nM, no LPS, Mean
  CCL4/MIP-1 beta MFI: 6.5
[17]
  CCL4/MIP-1 beta Concentration: <148.02 pg/mL
  CCL4/MIP-1 beta MFI: 6.0 and 7.0
  LPS-induced CCL-4 (in words): significantly reduced
